Source: US12697315B2, “Treatment for interstitial lung disease” (United Therapeutics Corporation, priority 2020, dated 2026)

System: patients with interstitial lung disease and pulmonary hypertension
Assay: Occurrence of / time to clinical worsening, INCREASE
Assay type: in vivo, human
Procedure: The primary end point of the trial was the difference between the two groups in the change in peak 6-minute walk distance from baseline to week 16. Secondary efficacy end points were analyzed in the following hierarchical testing order: the change in NT-proBNP level from baseline to week 16, the time to clinical worsening, the change in 6-minute walk distance at peak plasma treprostinil level at week 12, and the change in 6-minute walk distance at trough treprostinil level at week 15. The time to clinical worsening was evaluated from the time of randomization until the patient's withdrawal from the trial and was defined as the time until the occurrence of any one of the following events: hospitalization for a cardiopulmonary indication, a decrease in 6-minute walk distance greater than 15% from baseline that was directly related to the disease under study at two consecutive visits and at least 24 hours apart, death from any cause, or lung transplantation.

CCCCC[C@H](O)CC[C@@H]1[C@H]2Cc3cccc(OCC(=O)O)c3C[C@H]2C[C@H]1O [Inhaled treprostinil, treprostinil]
patients with clinical worsening (16 weeks): 22.7%
patients with first occurrence of clinical worsening that involved hospitalization for a cardiopulmonary indication (16 weeks): 11.0%
Clinical worsening: Death from any cause (16 weeks, N = 163): 4 (2.5) no. (%)
Clinical worsening: Decrease in 6 minute walk distance of >15% from baseline (16 weeks, N = 163): 13 (8.0) no. (%)
Clinical worsening: Hospitalization for cardiopulmonary indication (16 weeks, N = 163): 18 (11.0) no. (%)
Clinical worsening: Lung transplantation (16 weeks, N = 163): 2 (1.2) no. (%)
Occurrence of clinical worsening: Any event (16 weeks, N = 163): 37 (22.7) no. (%)
Occurrence of clinical worsening, hazard ratio (vs placebo, Cox proportional-hazards model, listed as inhaled treprostinil): 0.61
